The target of test [1] is JAK3 (Homo sapiens (Human), UniProt P52333). In words: JAK3 enzyme assay (Z'-LYTE). In kind it is biochemical. The conditions noted are these: 10 μM ATP, arithmetic mean of two or more experiments; for IC50: read-out: JAK3 enz pIC50 (converted). How it is done: (§1) The inhibitory activity of compounds against AURKA, AURKB, JAK1, JAK2 and JAK3 was determined in Z′-LYTE® assays run by ThermoFisher Scientific as part of their SelectScreen® Biochemical Kinase Profiling Service. The Z′-LYTE® biochemical assay format employs a fluorescence-based, coupled-enzyme format and is based on the differential sensitivity of phosphorylated and non-phosphorylated peptides to proteolytic cleavage. The peptide substrate is labeled with two fluorophores—one at each end—that make up a FRET pair. In the primary reaction, the kinase transfers the gamma-phosphate of ATP to a single tyrosine, serine or threonine residue in a synthetic FRET-peptide. In the secondary reaction, a site-specific protease recognises and cleaves non-phosphorylated FRET-peptides. Phosphorylation of FRET-peptides suppresses cleavage by the Development Reagent. Cleavage disrupts FRET between the donor (i.e., coumarin) and acceptor (i.e., fluorescein) fluorophores on the FRET-peptide, whereas uncleaved, phosphorylated FRET-peptides maintain FRET. A ratiometric method, which calculates the ratio (the Emission Ratio) of donor emission to acceptor emission after excitation of the donor fluorophore at 400 nm, is used to quantitate reaction progress. Both cleaved and uncleaved FRET-peptides contribute to the fluorescence signals and therefore to the Emission Ratio. The extent of phosphorylation of the FRET-peptide can be calculated from the Emission Ratio.
(§2) 10 point three-fold dilution compound concentration-response curves, with a top concentration of 10 μM were generated from 10 mM stocks of compound solubilised in DMSO. All assays were performed in black, non-binding, low volume Corning 384-well plates (cat. #4514, Corning), in a total reaction volume of 10 μL and 1% (v/v) final DMSO concentration. […] The kinase reaction was then quenched by the addition of 5 μL of Development Reagent (ThermoFisher Scientific proprietary). […] IC50 values were calculated using XLfit software (IDBS Ltd, Surrey, UK), with the curve fit to model number 205 (sigmoidal dose-response model).
JAK3: The 2×JAK3/Tyr 06 (ThermoFisher Scientific proprietary) mixture was prepared in 50 mM HEPES pH 7.5. 0.01% BRIJ-35, 10 mM MgCl2, 1 mM EGTA. […] After the 1 hour Kinase Reaction incubation, 5 μL of a 1:128 dilution of Development Reagent was added.

Test [2] addresses AURKB (Aurora B) (Homo sapiens (Human), UniProt Q96GD4). In words: Aurora-B enzyme assay (Z'-LYTE). In kind it is biochemical. The conditions noted are these: 75 μM ATP, arithmetic mean of two or more experiments; for IC50: read-out: AurB enz pIC50 (converted). How it is done:
as §1, §2
Aurora B (AurB): The 2×AURKB (Aurora B)/Ser/Thr 01 (ThermoFisher Scientific proprietary) mixture was prepared in 50 mM HEPES pH 7.5, 0.01% BRIJ-35, 10 mM MgCl2, 1 mM EGTA. […] After the 1 hour Kinase Reaction incubation, 5 μL of a 1:4096 dilution of Development Reagent was added.

Test [3] has as its target Full length human DNAPK protein (Homo sapiens (Human), UniProt P78527). In words: DNAPK enzyme potency assay (DNA-PK enz), TR-FRET. The conditions noted are these: arithmetic mean of two or more experiments, 18 μM ATP; for IC50: read-out: DNA-PK enz pIC50 (converted). In kind it is biochemical. From the text:
The following assays were used to measure the effects of the compounds described herein: a) DNAPK enzyme potency assay; b) DNAPK cellular potency assay. During the description of the assays, generally: • i. The following abbreviations have been used; DMSO=Dimethyl Sulphoxide; DTT=Dithiothreitol; EDTA=Ethylenediaminetetraacetic Acid, TR-FRET=Time Resolved Fluorescence Resonance Energy Transfer, ATP=Adenosine triphosphate, DTT=Dithiothreitol, DNA=Deoxyribonucleic acid, HEPES=(2-hydroxyethyl)-1-piperazineethanesulfonic acid • ii. […] Assay a): DNAPK Enzyme Potency Assay (DNA-PK Enz)
The inhibitory activity of compounds against DNAPK was determined by TR-FRET measuring a fluorescent labelled peptide substrate converting to a phosphorylated product. Fluorescently tagged peptide substrate were purchased from Thermo Fisher Scientific. 12 point half-log compound concentration-response curves, with a top concentration of 100 μM were generated from 10 mM stocks of compound solubilised in DMSO using an Echo 555 (Labcyte Inc., Sunnyvale, CA). All assays were preformed in white Greiner 1536 well low volume plates (Greiner Bio-One, UK), in a total reaction volume of 3 μL and 1% (v/v) final DMSO concentration. Enzymes and substrates were added separately to the compound plates and incubated at room temperature. The kinase reaction was then quenched by the addition of 3 μL of stop buffer. Stopped assay plates were read using a BMG Pherastar. IC50 values were calculated using a Genedata Screener® software (Genedata, Inc., Basel, Switzerland).
Full length human DNAPK protein was purified from HeLa cell extract by ion exchange. Initially DNAPK protein was incubated with compound for 30 minutes at room temperature in reaction buffer (50 mM Hepes pH 7.5, 0.01% Brij-35, 10 mM MgCl2, 1 mM EGTA, 1 mM DTT, […] Calf Thymus DNA). The reaction was then initiated by the addition of ATP and fluorescently tagged peptide substrate (Fluorescein-[…], Thermo Fisher Scientific). […] The reaction was incubated for a further hour and the plates were read on a BMG Pherastar.
(§3) Data was analysed and IC50 values were calculated using Genedata Screener® software (Genedata, Inc., Basel, Switzerland).

Test [4] deals with JAK2 (Homo sapiens (Human), UniProt O60674). In words: JAK2 enzyme assay (Z'-LYTE). The conditions noted are these: 25 μM ATP, arithmetic mean of two or more experiments; for IC50: read-out: JAK2 enz pIC50 (converted). In kind it is biochemical. How it is done:
as §1, §2
JAK2: The 2×JAK2/Tyr 06 (ThermoFisher Scientific proprietary) mixture was prepared in 50 mM HEPES pH 7.5, 0.01% BRIJ-35, 10 mM MgCl2, 1 mM EGTA. […] After the 1 hour Kinase Reaction incubation, 5 μL of a 1:128 dilution of Development Reagent was added.

In test [5] the target is DNAPK (Homo sapiens (Human), UniProt P78527). As to the kind of experiment: DNAPK cellular potency assay (DNA-PK cell), pS2056-DNAPK ELISA in irradiated A549 cells. The conditions noted are these: 8 Gy radiation, arithmetic mean of two or more experiments, read-out: DNA-PK cell pIC50 (converted). In kind it is cell-based. As to the method:
The DNAPK cell ELISA assay was performed in the A549 cell line. A549 cells were cultured in cell media composed of MEM-F12 (Minimum Essential Medium F12 Sigma #D6421), 10% (v/v) Foetal Calf Serum and 1% (v/v) 200 mM L-Glutamine. […] The following day the Greiner ELISA plates were washed 3× with PBS-T and blocked with 3% BSA/PBS for 2 h, before a further 3× wash with PBS-T.
The cell plates were then incubated for 1 h at 37° C. before receiving a radiation dose of 8 Gy (XRAD 320, table height 65). The cells were incubated for a further 1 h before removal of cell media. […] Cell lysates ([…]) were transferred to the DNAPK antibody-coated ELISA plates using a CyBio Felix liquid handling platform, and ELISA plates were incubated at 4° C. overnight.
The following day, ELISA plates were washed 3× with PBS-T and dispensed with in-house pS2056-DNAPK antibody (0.5 μg/mL in 3% BSA/PBS) at 20 ul/well.
The fluorescence intensity of individual wells was determined using a PerkinElmer EnVision plate reader.
as §3

Bounds are passed on as bounds.

Chain of JAK3 (P52333 whole entry): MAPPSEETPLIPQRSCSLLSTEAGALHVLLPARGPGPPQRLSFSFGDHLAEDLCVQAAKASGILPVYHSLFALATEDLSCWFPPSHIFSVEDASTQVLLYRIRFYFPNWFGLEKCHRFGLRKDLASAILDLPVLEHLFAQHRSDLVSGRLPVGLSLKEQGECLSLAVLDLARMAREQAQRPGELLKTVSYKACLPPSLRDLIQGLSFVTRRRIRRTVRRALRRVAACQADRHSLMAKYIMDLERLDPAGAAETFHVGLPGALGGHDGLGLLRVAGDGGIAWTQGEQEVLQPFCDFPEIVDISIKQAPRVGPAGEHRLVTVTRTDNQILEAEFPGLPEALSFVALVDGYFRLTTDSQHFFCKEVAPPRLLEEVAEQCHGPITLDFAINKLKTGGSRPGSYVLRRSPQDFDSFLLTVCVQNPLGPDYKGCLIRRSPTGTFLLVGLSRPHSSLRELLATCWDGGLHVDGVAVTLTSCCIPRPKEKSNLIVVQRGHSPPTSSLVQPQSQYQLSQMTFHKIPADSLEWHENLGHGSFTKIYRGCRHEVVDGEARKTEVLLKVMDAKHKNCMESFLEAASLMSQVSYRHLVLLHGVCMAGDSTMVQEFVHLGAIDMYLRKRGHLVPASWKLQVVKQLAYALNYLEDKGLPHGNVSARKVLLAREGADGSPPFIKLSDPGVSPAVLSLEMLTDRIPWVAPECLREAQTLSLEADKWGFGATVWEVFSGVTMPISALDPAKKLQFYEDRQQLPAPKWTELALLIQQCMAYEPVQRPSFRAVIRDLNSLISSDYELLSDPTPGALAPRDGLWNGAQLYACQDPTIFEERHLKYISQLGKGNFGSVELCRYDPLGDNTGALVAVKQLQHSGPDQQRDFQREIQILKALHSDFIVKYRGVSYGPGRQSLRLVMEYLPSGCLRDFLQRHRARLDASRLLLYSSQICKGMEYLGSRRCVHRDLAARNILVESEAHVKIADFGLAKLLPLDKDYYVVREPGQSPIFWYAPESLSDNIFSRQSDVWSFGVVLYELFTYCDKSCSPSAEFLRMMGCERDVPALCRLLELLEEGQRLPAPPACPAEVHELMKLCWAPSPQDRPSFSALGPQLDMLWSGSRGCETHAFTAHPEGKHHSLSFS
Chain of JAK2 (O60674 whole entry): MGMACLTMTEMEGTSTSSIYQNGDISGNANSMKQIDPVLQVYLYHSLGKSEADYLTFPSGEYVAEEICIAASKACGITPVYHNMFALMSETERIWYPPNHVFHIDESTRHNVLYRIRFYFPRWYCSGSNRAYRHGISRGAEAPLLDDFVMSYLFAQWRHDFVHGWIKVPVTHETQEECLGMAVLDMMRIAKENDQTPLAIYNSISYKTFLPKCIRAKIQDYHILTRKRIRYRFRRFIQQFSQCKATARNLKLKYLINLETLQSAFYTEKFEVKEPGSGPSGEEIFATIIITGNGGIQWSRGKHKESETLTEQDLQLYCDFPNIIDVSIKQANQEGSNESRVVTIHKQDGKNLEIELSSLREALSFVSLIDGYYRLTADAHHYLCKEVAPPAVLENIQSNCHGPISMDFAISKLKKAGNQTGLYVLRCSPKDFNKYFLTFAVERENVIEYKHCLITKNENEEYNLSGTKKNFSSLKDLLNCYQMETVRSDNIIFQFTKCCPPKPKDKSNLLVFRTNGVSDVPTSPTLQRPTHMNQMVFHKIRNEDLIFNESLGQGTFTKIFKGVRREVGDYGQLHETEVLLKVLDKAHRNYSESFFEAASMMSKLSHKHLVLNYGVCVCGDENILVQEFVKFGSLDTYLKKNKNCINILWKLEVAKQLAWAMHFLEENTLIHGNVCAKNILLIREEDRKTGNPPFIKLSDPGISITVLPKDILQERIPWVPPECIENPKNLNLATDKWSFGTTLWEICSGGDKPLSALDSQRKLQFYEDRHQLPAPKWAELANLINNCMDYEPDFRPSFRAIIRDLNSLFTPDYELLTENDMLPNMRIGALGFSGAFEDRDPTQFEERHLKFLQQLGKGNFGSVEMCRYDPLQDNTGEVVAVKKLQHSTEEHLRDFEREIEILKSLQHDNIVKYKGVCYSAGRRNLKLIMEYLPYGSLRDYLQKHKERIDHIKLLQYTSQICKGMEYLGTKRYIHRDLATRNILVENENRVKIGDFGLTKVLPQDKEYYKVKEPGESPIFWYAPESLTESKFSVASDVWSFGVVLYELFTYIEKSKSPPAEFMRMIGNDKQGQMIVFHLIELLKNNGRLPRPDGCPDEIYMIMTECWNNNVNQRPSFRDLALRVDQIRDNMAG
Chain of AURKB (Aurora B) (Q96GD4 whole entry): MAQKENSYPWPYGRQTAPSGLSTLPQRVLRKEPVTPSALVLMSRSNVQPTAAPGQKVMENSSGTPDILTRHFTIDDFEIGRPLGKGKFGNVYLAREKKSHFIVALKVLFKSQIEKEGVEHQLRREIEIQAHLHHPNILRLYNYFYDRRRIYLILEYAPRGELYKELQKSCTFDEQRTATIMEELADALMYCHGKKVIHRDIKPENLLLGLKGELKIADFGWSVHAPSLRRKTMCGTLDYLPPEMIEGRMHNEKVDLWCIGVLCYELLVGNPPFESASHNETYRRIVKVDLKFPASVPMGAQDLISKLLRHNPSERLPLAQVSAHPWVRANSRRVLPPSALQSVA

As for `Cc1cc2nnccc2cc1Nc1ncc2c(n1)n([C@H]1CC[C@@H](O)CC1)c(=O)n2C` [Example 12, 9-((1s,4s)-4-hydroxycyclohexyl)-7-methyl-2-((7-methylcinnolin-6-yl)amino)-7,9-dihydro-8H-purin-8-one], in test [1], the “JAK3 enz pIC50” value was <5. Besides, the “AurB enz pIC50” value in test [2] is <5. Also, the “DNA-PK enz pIC50” value in test [3] is listed as >10. For the same molecule, in test [4], the “JAK2 enz pIC50” value is reported as <5. Besides, in test [5], the IC50 was 20 nM.
For the molecule `Cc1cc2nccnc2cc1Nc1ncc2c(n1)n([C@H]1CC[C@@H](O)CC1)c(=O)n2C` [Example 13, 9-((1s,4s)-4-hydroxycyclohexyl)-7-methyl-2-((7-methylquinoxalin-6-yl)amino)-7,9-dihydro-8H-purin-8-one], the IC50 is > 10000 nM in test [1]; > 10000 nM in test [2]; 0.2 nM in test [3]; > 10000 nM in test [4]; 15.8 nM in test [5].
With `Cc1cc2nccnc2cc1Nc1ncc2c(n1)n([C@H]1CC[C@](C)(O)CC1)c(=O)n2C` [Example 18, 9-((1r,4r)-4-hydroxy-4-methylcyclohexyl)-7-methyl-2-((7-methylquinoxalin-6-yl)amino)-7,9-dihydro-8H-purin-8-one], the IC50 in test [1] is > 10000 nM; in test [2], > 10000 nM; in test [3], 0.251 nM; in test [4] it was > 10000 nM; in test [5], 50.1 nM.
With `Cc1cc2nccnc2cc1Nc1ncc2c(n1)n([C@H]1CC[C@@](C)(O)CC1)c(=O)n2C` [Example 19, 9-((1s,4s)-4-hydroxy-4-methylcyclohexyl)-7-methyl-2-((7-methylquinoxalin-6-yl)amino)-7,9-dihydro-8H-purin-8-one], the IC50 in test [1] is > 10000 nM; in test [2], > 10000 nM; in test [3], 0.158 nM; in test [4], > 10000 nM; in test [5] it was 25.1 nM.
With `Cc1cc2nccnc2cc1Nc1ncc2c(n1)n([C@]1(C)CC[C@H](O)CC1)c(=O)n2C` [Example 20, 9-((1s,4s)-4-hydroxy-1-methylcyclohexyl)-7-methyl-2-((7-methylquinoxalin-6-yl)amino)-7,9-dihydro-8H-purin-8-one], the “JAK3 enz pIC50” value in test [1] was <5. The “AurB enz pIC50” value in test [2] is <5. For the same molecule, in test [3], the “DNA-PK enz pIC50” value is listed as 10.0. Moreover, the “JAK2 enz pIC50” value in test [4] is listed as <5. For the same molecule, the IC50 in test [5] was 20 nM.
In the case of `Cc1cc2nnccc2cc1Nc1ncc2c(n1)n([C@H]1CCOC1)c(=O)n2C` [Example 21, (S)-7-methyl-2-((7-methylcinnolin-6-yl)amino)-9-(tetrahydrofuran-3-yl)-7,9-dihydro-8H-purin-8-one], the “JAK3 enz pIC50” value in test [1] is recorded as <5. In test [2], the “AurB enz pIC50” value is on record as <5. In addition, the “DNA-PK enz pIC50” value in test [3] is listed as >10. Further, the “JAK2 enz pIC50” value in test [4] is on record as <5. In test [5], the IC50 was 15.8 nM.
Turning to `Cc1cc2nccnc2cc1Nc1ncc2c(n1)n([C@H]1CCOC1)c(=O)n2C` [Example 22, (S)-7-methyl-2-((7-methylquinoxalin-6-yl)amino)-9-(tetrahydrofuran-3-yl)-7,9-dihydro-8H-purin-8-one], the “JAK3 enz pIC50” value in test [1] was <5. Further, in test [2], the “AurB enz pIC50” value was <5. The “DNA-PK enz pIC50” value in test [3] was determined as 9.8. The “JAK2 enz pIC50” value in test [4] is given as <5. Besides, the IC50 in test [5] was 25.1 nM.
`Cc1cc2nnccc2cc1Nc1ncc2c(n1)n([C@@H]1CCOC1)c(=O)n2C` [Example 23, (R)-7-methyl-2-((7-methylcinnolin-6-yl)amino)-9-(tetrahydrofuran-3-yl)-7,9-dihydro-8H-purin-8-one]: the “JAK3 enz pIC50” value in test [1] is on record as <5. Further, in test [2], the “AurB enz pIC50” value is <5. Further, in test [3], the “DNA-PK enz pIC50” value came out at 9.4. Besides, the “JAK2 enz pIC50” value in test [4] was <5. Moreover, in test [5], the IC50 is 63.1 nM.
`Cc1cc2nccnc2cc1Nc1ncc2c(n1)n([C@@H]1CCOC1)c(=O)n2C` [Example 24, (R)-7-methyl-2-((7-methylquinoxalin-6-yl)amino)-9-(tetrahydrofuran-3-yl)-7,9-dihydro-8H-purin-8-one]: the “JAK3 enz pIC50” value in test [1] is given as <5. Moreover, in test [2], the “AurB enz pIC50” value is <5. The “DNA-PK enz pIC50” value in test [3] worked out at 9.1. The “JAK2 enz pIC50” value in test [4] is given as <5. Besides, the IC50 in test [5] is 79.4 nM.
In the case of `Cc1cc2nnccc2cc1Nc1ncc2c(n1)n([C@@H]1CCCOC1)c(=O)n2C` [Example 25, (R)-7-methyl-2-((7-methylcinnolin-6-yl)amino)-9-(tetrahydro-2H-pyran-3-yl)-7,9-dihydro-8H-purin-8-one], in test [1], the “JAK3 enz pIC50” value is on record as <5. Also, the “AurB enz pIC50” value in test [2] is <5. In addition, the “DNA-PK enz pIC50” value in test [3] is given as 9.7. In addition, the “JAK2 enz pIC50” value in test [4] is <5. In addition, in test [5], the IC50 is 39.8 nM.
Consider `Cc1cc2nccnc2cc1Nc1ncc2c(n1)n([C@@H]1CCCOC1)c(=O)n2C` [Example 26, (R)-7-methyl-2-((7-methylquinoxalin-6-yl)amino)-9-(tetrahydro-2H-pyran-3-yl)-7,9-dihydro-8H-purin-8-one], for which the “JAK3 enz pIC50” value in test [1] was <5. In addition, in test [2], the “AurB enz pIC50” value was <5. For the same molecule, the “DNA-PK enz pIC50” value in test [3] was found to be 9.8. Further, the “JAK2 enz pIC50” value in test [4] was <5. Besides, in test [5], the IC50 was 39.8 nM.

The record behind these values is patent US11884671B2, “Purinone compounds and their use in treating cancer” (ASTRAZENECA AB, priority 2018, dated 2024).
